Values of other authors, collected in patent US6017948A, “Water-miscible pharmaceutical compositions” (Supergen, Inc., priority 1998, dated 2000).

Experiments:
[1] = tested on: animals; details: chronic high doses (more than 100 mg/kg)
[2] = tested on: refractory ovarian cancer; details: single-agent phase II
[3] = tested on: tubulin polymer
[4] = tested on: head and neck cancer; details: single-agent phase II
[5] = tested on: previously untreated non-small-cell lung cancer; details: single-agent phase II
[6] = tested on: breast cancer; details: single-agent phase II

| SMILES | toxic effects [1] | response rates (complete and partial) [2] | effect on tubulin polymer / microtubule assembly [3] | response rates (complete and partial) [4] | response rates (complete and partial) [5] | response rates (complete and partial) [6] |
| --- | --- | --- | --- | --- | --- | --- |
| CCCCC(CC)COC(=O)c1ccccc1C(=O)OCC(CC)CCCC (stereo not drawn) [DEHP, diethylhexylphthalate] | growth retardation, liver weight increase, liver damage, testicular atrophy, teratogenicity, and carcinogenicity | – | – | – | – | – |
| CC(=O)O[C@H]1C(=O)[C@@]2(C)[C@H]([C@H](OC(=O)c3ccccc3)[C@]3(O)C[C@H](OC(=O)[C@H](O)[C@@H](NC(=O)c4ccccc4)c4ccccc4)C(C)=C1C3(C)C)[C@]1(OC(C)=O)CO[C@@H]1C[C@@H]2O [paclitaxel] | – | Encouraging response rates | stabilizes the tubulin polymer and promotes microtubule assembly | Encouraging response rates | Encouraging response rates | Encouraging response rates |
